Measurements reported in patent US12544375B2, “Small molecule therapeutic for parkinson's disease paired with a biomarker of therapeutic activity” (The Board of Trustees of the Leland Stanford Junior …, priority 2019, dated 2026).

Tested on: healthy-1 or PD-2 fibroblasts
Assay: Baseline mitochondrial reactive oxygen species, MitoSox staining
Assay type: cell-based, human
Settings: 10 μM for 30 hrs
Procedure: FIG. 8. Related to FIG. 2-4. Miro1 Reducer in Human Cell and Fly Models. (A) Fibroblasts from Healthy-1 and PD-2 were treated, lysed, and blotted as indicated. Band intensities are normalized to those of GAPDH from the same blots and compared to “Healthy-1, no treatment”. n=4 independent experiments. (B) Fibroblasts from PD-2 were treated and immunostained as indicated. The intensity was quantified for each cell across 264-320 cells from 3 independent experiments, compared to “no treatment”. (C) Fibroblasts were treated, immunoprecipitated (IPed) with anti-Miro1, and blotted as indicated. Similar results were observed twice. (D) Similar as in (C), fibroblasts were treated as indicated, and IPed with anti-Miro1. The GTPase activity of the IPed Miro1 protein was measured as described in Method. […] The MitoSox intensity was quantified for each cell across 106-161 cells from 3 coverslips. […] The TMRM intensity was measured for each cell across 48-60 cells from 3 independent experiments, and expressed as a fraction of the mean of “Healthy-1, no treatment”. […] The movement (the intensity of non-yellow) was quantified for each cell as described in (Tsai et al., 2014) across 22-31 cells from 3 transfections. […] (1) Left: The percentage of TH-positive iPSC-derived neurons out of total cells (Dapi-positive) is calculated after immunocytochemistry under 20× as described in FIG. 3. […]

In the case of `O=C(Nc1ccc(Nc2cc(-n3ccnc3)ncn2)cc1)Nc1cccc(F)c1` [Miro1 Reducer], the “baseline mitochondrial reactive oxygen species levels (MitoSox)” value is reported as “did not affect”.
